Reference: patent US5312625A, “Fused 7-membered cyclic compound and antipsychotic preparation containing the same” (Suntory Limited, priority 1990, dated 1994)

molecular target: T1, serotonin receptor (Rattus norvegicus, UniProt P19327); test: Affinity for serotonin receptor, [3H]8-OHDPAT binding test in rat cerebral cortex; set-up: species or system rat (Wistar-strain male); conditions: [3H]8-OHDPAT 0.4 nM; rat cerebral cortex membranes; pH 7.4; 25° C., 30 minutes; read-out: [^3 H]-8-OH-DPAT IC50
T1 construct: To a cerebral cortex nucleated from a Wistar-strain male rat; from tissue; host or cells: cerebral cortex of male Wistar rat (membrane preparation)
T1 sequence (P19327 1-422): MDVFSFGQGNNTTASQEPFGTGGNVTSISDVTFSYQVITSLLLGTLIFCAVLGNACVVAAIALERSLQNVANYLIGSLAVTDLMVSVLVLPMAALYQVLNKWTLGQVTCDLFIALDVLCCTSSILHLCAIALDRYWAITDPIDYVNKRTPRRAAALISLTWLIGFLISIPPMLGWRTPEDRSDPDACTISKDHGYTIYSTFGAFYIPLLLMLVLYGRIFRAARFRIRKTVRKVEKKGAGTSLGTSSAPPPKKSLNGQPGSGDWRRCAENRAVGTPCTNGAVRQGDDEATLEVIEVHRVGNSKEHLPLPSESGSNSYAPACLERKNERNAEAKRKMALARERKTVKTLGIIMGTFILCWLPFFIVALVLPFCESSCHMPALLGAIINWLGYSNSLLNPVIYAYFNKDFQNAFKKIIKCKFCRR
Experimental: The experiment was carried out according to the method of S. T. Perouka (J. Neurochem., 47, 529-540 (1986)).
To a cerebral cortex nucleated from a Wistar-strain male rat was added 50 mM Tris-HCl (pH 7.7) buffer, and the mixture was homogenized by a Polytron®. The homogenate was centrifuged at 40,000 G for 10 minutes, and the same buffer was added to the precipitate obtained, followed by homogenization and incubation at 37° C. for 30 minutes. The suspension was again subjected to centrifugation at 40,000 G for 10 minutes, and the same buffer was added to the precipitate, followed by homogenization and a further centrifugation at 40,000 G for 10 minutes. To the final precipitate obtained was added 50 mM Tris-HCl (10 μM pargyline, 4 mM CaCl2 0.1% ascorbic acid) (pH 7.4), and the mixture was homogenized and used for the binding test. The [^3 H]8-OHDPAT used for the binding test was 0.4 nM, with the protein amount being 0.4 to 0.6 mg/ml and the total amount 1 ml. After incubation at 25° C. for 30 minutes, the mixture was filtered by the filtration method, using the Whatman GF/B filter, and the filter was washed 3 times with 5 ml of the same buffer. To the filter was added a scintillation cocktail, followed by a measurement by a liquid scintillation counter.

SMILES	IC50
O=C1CSc2ccccc2C(=O)N1CCCCN1CCN(c2ccccc2)CC1 [Example 17]	9.29 nM
O=C1CSc2ccccc2C(=O)N1CCCCN1CCN(c2ccccn2)CC1 [Example 18, 4-(4-(4-(2-pyridyl)piperazinyl)butyl)-2,3,4,5-tetrahydro-1,4-benzothiazeoine-3,5-dione]	3.28 nM
O=C1CSc2ccccc2C(=O)N1CCCCN1CCN(c2ncccn2)CC1 [Example 19, 4-(4-(4-(2-pyrimidinyl)piperadinyl)butyl)-2,3,4,5-tetrahydro-1,4-benzothiazepine-3,5-dione]	14.3 nM
O=C1CNc2ccccc2C(=O)N1CCCCN1CCN(c2ccccn2)CC1 [Example 21, 4-(4-(4-(2-pyridyl)piperazinyl)butyl)-2,3,4,5-tetrahydro-1,4-benzodiazepine-3,5-dione]	13.3 nM

Further lines, results first:

IC50	SMILES
67.3 nM	O=C1CNc2ccccc2C(=O)N1CCCCN1CCN(c2ncccn2)CC1 [Example 22, 4-(4-(4-(2-pyrimidinyl)piperazinyl)butyl)-2,3,4,5-tetrahydro-1,4-benzodiazepine-3,5-dione]
61.4 nM	CN1CC(=O)N(CCCCN2CCN(c3ccccn3)CC2)C(=O)c2ccccc21 [Example 24, 1-methyl-4-(4-(4-(2-pyridyl)piperazinyl)butyl)-2,3,4,5-tetrahydro-1,4-benzodiazepine-3,5-dione]
270 nM	CN1CC(=O)N(CCCCN2CCN(c3ncccn3)CC2)C(=O)c2ccccc21 [Example 25]
17.1 nM	O=C1CCc2ccccc2C(=O)N1CCCCN1CCN(c2ccccn2)CC1 [Example 27, 2-(4-(4-(2-pyridyl)piperazinyl)butyl)-1,3,4,5-tetrahydro-2-benzazepine-1,3-dione]
58.4 nM	O=C1CCc2ccccc2C(=O)N1CCCCN1CCN(c2ncccn2)CC1 [Example 28, 2-(4-(4-(2-pyrimidinyl)piperazinyl)butyl)-1,3,4,5-tetrahydro-2-benzazepine-1,3-dione]
